Experiment [1] has as its target T1, human GPCR sphingosine 1-phosphate receptor 2 (Homo sapiens, UniProt O95136).
T1 construct: host or cells: CHO
Description: S1PR2 antagonist Ca2+ flux assay. As to conditions: antagonist mode, CHO-S1PR2 cells, S1P at EC80, Ca2+ fluorescence; read-out: S1P2 EC50 (nM), S1P2 antagonist EC50. Format: cell-based. As to the method: Triggering of S1PR2 by administration of Sphingosine-1-phosphate leads to a transient increase in intracellular Ca^2+. The Ca^2+ flux assays are measuring the release of Ca^2+ intracellularly by use of a Ca^2+ sensitive fluorescent dye. The assay is firstly run in agonist mode (incubation of compounds alone) to ensure that the Ca^2+ released measured is not caused by the test compound having an agonistic effect. Then the assay is continued in antagonist mode (Sphingosine-1-Phosphate added to incubated medium containing the test compounds).
CHO cells stably overexpressing human GPCR sphingosine 1-phosphate receptor 2 (CHO-S1PR2 Perkin Elmer; ES-594-A) are seeded from a frozen stock in 384 wells sterile microplates (50 μL; 7,500 cells/well) and are incubated overnight at 37° C. and 5% CO2. The next day cells are washed twice with starvation medium (F-12 Ham's medium containing 0.1% BSA (Fatty acid free: FAF)) and left in 25 μL starvation medium for 1 h at 37° C., 5% CO2. After this starvation cells are incubated with 25 μL buffer containing the Ca^2+-sensitive fluorescent dye (0.5 mg Fluo8+125 mg Allura Red in 100 mL of 1% DMSO, in HBSS+20 mM Hepes+5 mM probenecid). The cells are incubated for an additional 1 h after which 10 μL compounds, diluted in HBSS buffer with 20 mM Hepes and 0.1% BSA (FAF), are added to the cells and intracellular Ca2+ changes are immediately measured by reading fluorescence during 3 min (FDSS/pCELL reader). The ratio of the maximal fluorescence over the background fluorescence before compound injection is used to determine compound response.
After readout of the agonist activity, the plates are incubated for 15 min at 37° C. and 5% CO2. Then, cells are stimulated with 10 μL Sphingosine-1-Phosphate (S1P) (Avanti Polar lipids-860492P) at its EC80 concentration. Intracellular Ca2+ changes are immediately measured by reading fluorescence during 3 min (FDSS/pCELL reader). The ratio of the maximal fluorescence over the background fluorescence before compound injection is used to determine compound response.
The obtained ratio's for agonist and antagonist readout were normalized versus vehicle and EC 100 of S1P ascontrols for agonist mode and versus vehicle and […]. From these normalized data EC50 of the compounds are derived.

Experiment [2] has as its system HFL-1 cells. Description: IL-8 production assay (S1P induced IL-8). The class given is cell-based. The following applies: Homo sapiens, HFL1; S1P (1 μM) induced IL-8 in HFL-1 cells, starvation medium without HSA; read-out: IL8 EC50. As to the method:
This assay is designed to test inhibitory activity of compounds on S1P induced IL-8 on HFL-1 cells, ahuman fetal lung fibroblast cell line.
Human Fetal Lung cells (HFL-1) are seeded in 96 well plates in growth medium (F12K+10% heat inactivated FBS+l1% Pen/strep). After overnight incubation at 37° C., […] cells are refreshed with starvation medium without HSA (F12K+1% FBS+1% Pen/strep). On day three, compounds are added (10 point serial dilution, 30 μM highest concentration, 1/3 dilution, 0.3% DMSO final) and plates are incubated for one h at 37° C., 5% CO2. Subsequently S1P at 1 μM final concentration is added and plates are incubated for 16 to24 h at 37° C., […] after which the supermatant was collected. IL-8 levels in the supernatant are determined with the IL-8 ELISA of R&D systems.

Experiment [3] deals with HFL-1 cells. Description: IL8 assay in the presence of Human Serum Albumin. As to conditions: HFL1, read-out: HSA IL8 EC50.
Experiment [4] concerns the target T2, S1PR2 (Homo sapiens, UniProt O95136).
T2 construct: expressed in transfected cells
Description: S1PR2 binding assay (competition with radioactively labeled S1P, SpA). As to conditions: membranes from stable cell line over expressing S1PR2, SpA beads; read-out: S1P2 EC50 (nM), S1PR2 binding EC50. As to the method: The following assay can be used for determination of S1PR2 binding. The binding assay measures the potential to compete with radioactively labeled S1P for binding to the receptor.
The assay is performed in a96 well plate where the following reagents are added. First 50 μL compound is added into the assay plate, followed by addition of 100 μL ofa mixture consisting of membrane and Scintillation proximity Assay (SpA) beads [mixture consists […] membranes derived from stable cell line over expressing SPR2, 0.5 mg/well Polyvinyltoluene-Wheat Germ-Agglutinin (PVT-WGA) beads (Perkin Elmer, RPNQOO1)]. All components are diluted in assay buffer containing 20 mM Tris pH 7.5; 10 mM MgCl2; 100 mM NaCl; 0.4% BSA FAF; 1 mM Na3VO4) and incubated for 15 min until addition to the assay plate. Subsequently, 50 ul of radioactively labeled S1P is added to the wells (Sphingosine, D-erythro-[3-3H] 1-phosphate; ARC; ART0778). After an incubation for 2 h at room temperature, plates are centrifuged at 2000 rpm during 20 min. Plates are read on a Topcount reader (Perkin Elmer) immediately after centrifugation (readout time, 1 min/well).

This note sets out measurements from US20210315893A1 (Galapagos NV, priority 2017, published 2021).

T1 sequence (O95136 whole entry): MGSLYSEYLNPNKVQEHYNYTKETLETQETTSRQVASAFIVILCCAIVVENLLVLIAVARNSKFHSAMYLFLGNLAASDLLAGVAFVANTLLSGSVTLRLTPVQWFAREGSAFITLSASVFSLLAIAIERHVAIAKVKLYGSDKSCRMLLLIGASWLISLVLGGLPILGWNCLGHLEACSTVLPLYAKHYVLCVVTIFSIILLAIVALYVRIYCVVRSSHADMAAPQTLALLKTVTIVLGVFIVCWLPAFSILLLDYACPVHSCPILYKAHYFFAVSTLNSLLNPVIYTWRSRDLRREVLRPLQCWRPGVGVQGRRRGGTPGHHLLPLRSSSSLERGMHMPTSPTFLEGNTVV
T2 sequence (O95136 whole entry): as above

A word on the EC50: it is the midpoint of the concentration-response curve. In the case of `N#Cc1cc2nc(Cc3nn(CC(=O)N4CCOCC4)c(=O)c4ccccc34)cn2cc1OCC(F)F` [Compound 256, 6-(2,2-difluoroethoxy)-2-[[3-(2-morpholino-2-oxo-ethyl)-4-oxo-phthalazin-1-yl]methyl]imidazo[1,2-a]pyridine-7-carbonitrile], the EC50 in experiment [1] stood at 11600 nM; in experiment [2] it was 2660 nM; in experiment [3], 2350 nM.
In the case of `CC1(COc2cc3[nH]c(Cc4nn(CC(=O)N5CCOCC5)c(=O)c5ccccc45)nc3cc2Cl)CC1` [Compound 163, 4-[[5-chloro-6-[(1-methylcyclopropyl)methoxy]-1H-benzimidazol-2-yl]methyl]-2-(2-morpholino-2-oxo-ethyl)phthalazin-1-one], the EC50 was found to be 11.6 nM in experiment [1], 109 nM in experiment [4], 12.6 nM in experiment [2] and 107 nM in experiment [3].
The like results for `CN(C)CC(C(=O)O)n1nc(Cc2nc3cc(OCC(F)F)c(C#N)cc3[nH]2)c2ccccc2c1=O` (stereo not shown) [Compound 74, 2-[4-[[6-cyano-5-(2,2-difluoroethoxy)-1H-benzimidazol-2-yl]methyl]-1-oxo-phthalazin-2-yl]-3-(dimethylamino)propanoic acid] were, in that order, 2660 nM, 5330 nM, 823 nM and 779 nM.
The like results for `CCC(C(=O)O)c1nn(Cc2cn3cc(OCC4CC4)c(C(F)(F)F)cc3n2)c2ccccc2c1=O` (stereo not shown) [Compound 103, 2-[1-[[6-(cyclopropylmethoxy)-7-(trifluoromethyl)imidazo[1,2-a]pyridin-2-yl]methyl]-4-oxo-cinnolin-3-yl]butanoic acid] were, in that order, 4.59 nM, 223 nM, 18.9 nM and 108 nM.
With `CCOc1cc2nc(Cc3nn(CC(=O)N4CCOCC4)c(=O)c4ccccc34)[nH]c2cc1F` [Compound 157, 4-[(5-ethoxy-6-fluoro-1H-benzimidazol-2-yl)methyl]-2-(2-morpholino-2-oxo-ethyl)phthalazin-1-one], the EC50 in experiment [1] came out at 106 nM; in experiment [4], 618 nM; in experiment [2] it was 780 nM; in experiment [3], 1220 nM.
For `CC(O)(CNC(=O)Cn1nc(Cc2nc3cc(C#N)c(OCC(F)F)cc3[nH]2)c2ccccc2c1=O)C(F)(F)F` (stereo not shown) [Compound 190, 2-[4-[[5-cyano-6-(2,2-difluoroethoxy)-1H-benzimidazol-2-yl]methyl]-1-oxo-phthalazin-2-yl]-N-(3,3,3-trifluoro-2-hydroxy-2-methylpropyl)acetamide] the same measures were 15 nM, 63.6 nM, 20.1 nM and 38 nM.
`CC(C(=O)N1CCOCC1)n1nc(Cc2nc3cc(OCC4CC4)c(Cl)cc3[nH]2)c2ccccc2c1=O` (stereo not shown) [Compound 155, 4-(6-Chloro-5-cyclopropylmethoxy-1H-benzoimidazol-2-ylmethyl)-2-(1-methyl-2-morpholin-4-yl-2-oxo-ethyl)-2H-phthalazin-1-one]: the EC50 is 14.7 nM in experiment [1], 229 nM in experiment [4], 49.5 nM in experiment [2] and 230 nM in experiment [3].
For `CC(C)(C)NC(=O)Cn1nc(Cc2nc3cc(OCC(F)F)c(C#N)cc3[nH]2)c2c(c1=O)CCCC2` [Compound 203, N-tert-butyl-2-[4-[[6-cyano-5-(2,2-difluoroethoxy)-1H-benzimidazol-2-yl]methyl]-1-oxo-5,6,7,8-tetrahydrophthalazin-2-yl]acetamide] the same measures were 148 nM, 343 nM, 1020 nM and 1940 nM.
For `CN(CC1CCCO1)C(=O)Cn1nc(Cc2nc3cc(OCC(F)F)c(C#N)cc3[nH]2)c2ccccc2c1=O` (stereo not shown) [Compound 180, 2-[4-[[6-cyano-5-(2,2-difluoroethoxy)-1H-benzimidazol-2-yl)methyl]-1-oxo-phthalazin-2-yl]-N-methyl-N-(THF-2-ylmethyl)acetamide] the same measures were 21.1 nM, 93.9 nM, 28.3 nM and 67 nM.
In the case of `CCOc1cc2[nH]c(Cc3nn(CC(=O)N4CCOCC4)c(=O)c4ccccc34)nc2cc1Cl` [Compound 165, 4-[(5-chloro-6-ethoxy-1H-benzimidazol-2-yl)methyl]-2-(2-morpholino-2-oxo-ethyl)phthalazin-1-one], the values for the EC50 in experiment [2] and in experiment [3] were 4.65 nM and 79.9 nM, respectively.
As for `N#Cc1cc2[nH]c(Cc3nn(CC(=O)N4CC(O)(C5CC5)C4)c(=O)c4ccccc34)nc2cc1OCC(F)F` [Compound 215, 2-[[3-[2-(3-cyclopropyl-3-hydroxy-azetidin-1-yl)-2-oxo-ethyl]-4-oxo-phthalazin-1-yl)methyl]-6-(2,2-difluoroethoxy)-3H-benzimidazole-5-carbonitrile], the EC50 in experiment [1] is 120 nM; in experiment [2], 200 nM; in experiment [3], 112 nM.
Consider `N#Cc1cc2[nH]c(Cc3nn(CC(=O)NCCS(N)(=O)=O)c(=O)c4ccccc34)nc2cc1OCC(F)F` [Compound 229, 2-[4-[[6-cyano-5-(2,2-difluoroethoxy)-1H-benzimidazol-2-yl]methyl]-1-oxo-phthalazin-2-yl]-N-(2-sulfamoylethyl)acetamide], for which the results for the EC50 in experiment [1] and in experiment [4] were 120 nM and 503 nM, respectively.
Consider `CCOc1cc2[nH]c(Cc3nn(CC(=O)O)c(=O)c4ccccc34)nc2cc1Cl` [compound 6, 2-[4-[(5-chloro-6-ethoxy-1H-benzimidazol-2-yl)methyl]-1-oxo-phthalazin-2-yl]acetic acid], for which the EC50 in experiment [2] turned out to be 12.4 nM; in experiment [3] it was 57.2 nM.
Regarding `O=c1c2ccccc2c(Cc2nc3cc(Cl)c(OC(F)(F)F)cc3[nH]2)nn1CC1CCC1` [Compound 28, 4-[[6-chloro-5-(trifluoromethoxy)-1H-benzimidazol-2-yl]methyl]-2-(cyclobutylmethyl)phthalazin-1-one], the EC50 was determined as 1490 nM in experiment [1] and 33300 nM in experiment [4].
`CC(C)COc1cc2[nH]c(Cc3nn(CC(=O)N4CCOCC4)c(=O)c4ccccc34)nc2cc1Cl` [Compound 173, 4-[(5-chloro-6-isobutoxy-1H-benzimidazol-2-yl)methyl]-2-(2-morpholino-2-oxo-ethyl)phthalazin-1-one]: the EC50 worked out at 16 nM in experiment [1], 2.4 nM in experiment [2] and 3.47 nM in experiment [3].
As for `CC(C)(C)COc1cc2[nH]c(Cc3nn(CC(=O)N4CCOCC4)c(=O)c4ccccc34)nc2cc1Cl` [Compound 160, 4-[[5-chloro-6-(2,2-dimethylpropoxy)-1H-benzimidazol-2-yl]methyl]-2-(2-morpholino-2-oxo-ethyl)phthalazin-1-one], the 50% effective concentration (EC50) in experiment [1] worked out at 47.9 nM; in experiment [2] it was 133 nM; in experiment [3], 1050 nM.
